Measured values: PubChem BioAssay (NCI)
Several values for one entry are separate records, joined by “and”; a condition that tells them apart may be missing. Equal entries are not always repeated.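 96-well plates; 48 h exposure; 5 concentrations. Endpoints by linear interpolation between flanking doses. Not reached: highest tested concentration assigned. GI50 is the concentration that inhibits growth by half. TGI marks complete inhibition of growth.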

Tests used:
Assay in all cases: NCI tumour cell line growth inhibition, 48 h
[1] = tested on: 786-0 renal
[2] = tested on: A498 renal
[3] = tested on: A549 NSCLC
[4] = tested on: ACHN renal
[5] = tested on: BT-549 breast
[6] = tested on: CAKI-1 renal
[7] = tested on: CCRF-CEM leukemia
[8] = tested on: COLO 205 colon
[9] = tested on: DLD-1 colon
[10] = tested on: DMS 114 small cell lung
[11] = tested on: DMS 273 small cell lung
[12] = tested on: DU-145 prostate
[13] = tested on: EKVX NSCLC
[14] = tested on: HCC-2998 colon
[15] = tested on: HCT-116 colon
[16] = tested on: HCT-15 colon
[17] = tested on: HL-60(TB) leukemia
[18] = tested on: HOP-92 NSCLC
[19] = tested on: HS 578T breast
[20] = tested on: HT29 colon
[21] = tested on: IGROV1 ovarian
[22] = tested on: K-562 leukemia
[23] = tested on: KM12 colon
[24] = tested on: KM20L2 colon
[25] = tested on: LOX IMVI melanoma
[26] = tested on: LXFL 529 NSCLC
[27] = tested on: M19-MEL melanoma
[28] = tested on: MALME-3M melanoma
[29] = tested on: MCF7 breast
[30] = tested on: MDA-MB-231 breast
[31] = tested on: MDA-MB-435
[32] = tested on: MDA-N
[33] = tested on: MOLT-4 leukemia
[34] = tested on: NCI-H226 lung
[35] = tested on: NCI-H23 lung
[36] = tested on: NCI-H460 lung
[37] = tested on: NCI-H522 lung
[38] = tested on: NCI/ADR-RES ovarian
[39] = tested on: OVCAR-4 ovarian
[40] = tested on: OVCAR-5 ovarian
[41] = tested on: OVCAR-8 ovarian
[42] = tested on: PC-3 prostate
[43] = tested on: RPMI-8226 leukemia
[44] = tested on: RXF 393 renal
[45] = tested on: SF-268 CNS
[46] = tested on: SF-295 CNS
[47] = tested on: SF-539 CNS
[48] = tested on: SK-MEL-2 melanoma
[49] = tested on: SK-MEL-28 melanoma
[50] = tested on: SK-MEL-5 melanoma
[51] = tested on: SK-OV-3 ovarian
[52] = tested on: SN12C renal
[53] = tested on: SNB-19 CNS
[54] = tested on: SNB-75 CNS
[55] = tested on: SNB-78 CNS
[56] = tested on: SR leukemia
[57] = tested on: SW-620 colon
[58] = tested on: T-47D breast
[59] = tested on: TK-10 renal
[60] = tested on: U251 CNS
[61] = tested on: UACC-257 melanoma
[62] = tested on: UACC-62 melanoma
[63] = tested on: UO-31 renal

Structure (SMILES): CN(C)CCCN1c2ccccc2Sc2ccc(C(F)(F)F)cc21
- GI50 [1]: 1.63 µM
- TGI [1]: 3.09 µM and 27.1 µM and 27.9 µM
- GI50 [2]: 1.05 µM
- GI50 [3]: 1.89 µM
- TGI [3]: 3.83 µM and 31.9 µM and 31.4 µM
- GI50 [4]: 1.81 µM
- TGI [4]: 3.85 µM and 28.8 µM and 28.2 µM
- GI50 [5]: 1.77 µM
- TGI [5]: 3.32 µM and 26.5 µM
- GI50 [6]: 1.54 µM
- TGI [6]: 3.15 µM and 24 µM
- GI50 [7]: 1.92 µM
- TGI [7]: 5 µM and 38.5 µM and 39 µM
- GI50 [8]: 1.38 µM
- TGI [9]: 31.9 µM
- TGI [10]: 34 µM
- TGI [11]: 29.4 µM
- GI50 [12]: 1.79 µM
- TGI [12]: 3.22 µM and 31.2 µM
- GI50 [13]: 1.84 µM
- TGI [13]: 4.75 µM and 35.7 µM and 29.3 µM
- GI50 [14]: 1.46 µM and 10.5 µM and 4.5 µM
- TGI [14]: 2.89 µM and 23.8 µM and 15.8 µM
- GI50 [15]: 1.64 µM
- TGI [15]: 3.13 µM and 28.5 µM and 27.2 µM
- GI50 [16]: 1.92 µM
- TGI [16]: 3.73 µM and 31 µM and 31.1 µM
- GI50 [17]: 1.82 µM
- GI50 [18]: 1.04 µM
- TGI [18]: 2.99 µM and 26.3 µM
- GI50 [19]: 1.63 µM
- TGI [19]: 3.7 µM and 28.5 µM
- GI50 [20]: 1.35 µM
- TGI [20]: 2.82 µM and 25.3 µM
- GI50 [21]: 1.67 µM
- TGI [21]: 3.31 µM and 29.3 µM and 30.1 µM
- GI50 [22]: 2.03 µM
- TGI [22]: 4.08 µM and 30.9 µM
- GI50 [23]: 1.65 µM
- TGI [24]: 23.7 µM
- GI50 [25]: 1.57 µM
- TGI [25]: 2.98 µM and 28.9 µM and 29.7 µM
- TGI [26]: > 100 µM
- TGI [27]: 32.3 µM
- GI50 [28]: 1.56 µM
- TGI [28]: 3.15 µM and 28.4 µM and 30.1 µM
- GI50 [29]: 1.6 µM
- GI50 [30]: 1.45 µM
- TGI [30]: 2.9 µM and 26.5 µM
- GI50 [31]: 1.6 µM
- TGI [32]: 26.3 µM
- GI50 [33]: 1.86 µM
- TGI [33]: 4.19 µM and 39.2 µM
- GI50 [34]: 1.56 µM
- TGI [34]: 3.17 µM
- GI50 [35]: 1.72 µM
- TGI [35]: 4.12 µM and 31.1 µM and 34.4 µM
- GI50 [36]: 1.6 µM
- GI50 [37]: 1.39 µM
- GI50 [38]: 1.66 µM
- TGI [38]: 3.42 µM and 31.1 µM
- GI50 [39]: 1.97 µM
- TGI [39]: 5.53 µM and 28 µM
- GI50 [40]: 1.63 µM
- TGI [40]: 3.25 µM and 31.6 µM
- GI50 [41]: 1.73 µM
- TGI [41]: 3.33 µM and 30 µM
- GI50 [42]: 1.67 µM
- TGI [42]: 4 µM and 28.6 µM
- GI50 [43]: 2.03 µM
- TGI [43]: 6.06 µM and 35.7 µM and 45.4 µM
- GI50 [44]: 1.32 µM
- GI50 [45]: 1.75 µM
- TGI [45]: 3.94 µM and 31.8 µM and 29.2 µM
- GI50 [46]: 1.65 µM
- TGI [46]: 3.23 µM and 30.4 µM and 29.1 µM
- GI50 [47]: 1.83 µM
- GI50 [48]: 1.79 µM
- TGI [48]: 3.69 µM and 30.5 µM
- GI50 [49]: 1.68 µM
- GI50 [50]: 1.57 µM
- GI50 [51]: 1.53 µM
- GI50 [52]: 1.66 µM
- TGI [52]: 3.62 µM and 32.2 µM and 29.5 µM
- GI50 [53]: 1.71 µM
- TGI [53]: 3.27 µM and 28.8 µM and 30.3 µM
- GI50 [54]: 1.32 µM
- TGI [54]: 3.51 µM and 26 µM and 24.8 µM
- TGI [55]: 33.9 µM
- GI50 [56]: 2.14 µM
- GI50 [57]: 1.58 µM
- GI50 [58]: 1.4 µM
- TGI [58]: 3.18 µM and 29.1 µM
- GI50 [59]: 1.77 µM
- TGI [59]: 3.24 µM and 28.8 µM and 31.6 µM
- GI50 [60]: 1.69 µM
- TGI [60]: 3.14 µM and 29.6 µM and 29.4 µM
- GI50 [61]: 1.62 µM
- TGI [61]: 3.49 µM and 29.5 µM and 26.7 µM
- GI50 [62]: 1.46 µM
- GI50 [63]: 1.48 µM
- TGI [63]: 5.38 µM and 28.3 µM and 28.9 µM
